Laboratory results from patent publication US20260306527A1, “PRMT INHIBITOR COMPOUNDS AND THE USES THEREOF” (Purdue Research Foundation, priority 2023, published 2026).

Key:
Type in all cases: biochemical
[1] = target: T1, PRMT1 (Homo sapiens, UniProt Q99873); assay: selectivity of YD1113/YD1290 on PRMT panel, PRMT1
T1 construct: made in house
Procedure: (§1) The selectivity of compounds YD1113 and YD1290 on PRMTs were performed by Reaction Biology Corp.
(§2) Next, the selectivity of YD1113 was investigated on a panel of PRMTs at 10 μM.
(§3) After validating the benzyl urea moiety as an unconventional homocysteine mimic of SAH for PRMTs, it was hypothesized that incorporating the benzyl urea moiety into the original pan PRMT inhibitor II757 would build a potent bisubstrate inhibitor. […] To enable a stable tri-substitution, the sulfur atom with a nitrogen atom was replaced. YD1290 was synthesized following the reported methods 9, 15 and tested in a radioactivity assay for PRMTs (FIG. 6b).

[2] = system: PRMT4; assay: selectivity of YD1113/YD1290 on PRMT panel, PRMT4
Procedure: as §1, §2, §3

[3] = target: PRMT5 (Homo sapiens, UniProt O14744); assay: selectivity of YD1113 on PRMT panel, PRMT5; settings: read-out: IC50 (nM) | PRMT5
Sequence of PRMT5 (O14744 whole entry, species assumed): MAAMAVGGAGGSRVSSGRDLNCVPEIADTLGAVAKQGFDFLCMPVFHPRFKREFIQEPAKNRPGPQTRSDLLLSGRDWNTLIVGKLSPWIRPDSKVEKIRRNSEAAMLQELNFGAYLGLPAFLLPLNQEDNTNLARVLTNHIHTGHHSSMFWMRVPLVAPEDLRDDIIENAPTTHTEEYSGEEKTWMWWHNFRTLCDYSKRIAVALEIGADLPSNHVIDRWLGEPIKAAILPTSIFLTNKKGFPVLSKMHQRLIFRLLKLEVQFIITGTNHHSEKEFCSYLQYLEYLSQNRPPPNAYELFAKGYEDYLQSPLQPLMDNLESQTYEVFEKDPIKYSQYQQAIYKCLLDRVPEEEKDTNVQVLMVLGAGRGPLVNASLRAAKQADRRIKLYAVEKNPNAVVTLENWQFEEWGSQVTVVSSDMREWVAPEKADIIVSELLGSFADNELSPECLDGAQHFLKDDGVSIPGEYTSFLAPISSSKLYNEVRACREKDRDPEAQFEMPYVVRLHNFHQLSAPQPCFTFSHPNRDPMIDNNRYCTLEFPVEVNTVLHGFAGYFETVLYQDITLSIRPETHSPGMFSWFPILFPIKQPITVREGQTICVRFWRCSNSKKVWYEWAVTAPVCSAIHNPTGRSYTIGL
Sequence of PRMT5 (Q9BQA1 whole entry partner, species assumed): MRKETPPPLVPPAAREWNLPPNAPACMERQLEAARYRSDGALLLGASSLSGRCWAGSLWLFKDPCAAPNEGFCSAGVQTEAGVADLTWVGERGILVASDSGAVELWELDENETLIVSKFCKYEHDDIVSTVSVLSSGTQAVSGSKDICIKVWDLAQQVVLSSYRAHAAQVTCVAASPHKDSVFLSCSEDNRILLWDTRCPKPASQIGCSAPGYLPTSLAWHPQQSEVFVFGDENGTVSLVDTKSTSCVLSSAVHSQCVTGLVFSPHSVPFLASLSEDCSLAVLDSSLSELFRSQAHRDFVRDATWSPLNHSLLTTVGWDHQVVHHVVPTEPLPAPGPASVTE
Procedure: as §1, §2

[4] = target: T2, PRMT8 (Homo sapiens, UniProt Q9NR22); assay: selectivity of YD1113/YD1290 on PRMT panel, PRMT8
T2 sequence (Q9NR22 whole entry, species assumed): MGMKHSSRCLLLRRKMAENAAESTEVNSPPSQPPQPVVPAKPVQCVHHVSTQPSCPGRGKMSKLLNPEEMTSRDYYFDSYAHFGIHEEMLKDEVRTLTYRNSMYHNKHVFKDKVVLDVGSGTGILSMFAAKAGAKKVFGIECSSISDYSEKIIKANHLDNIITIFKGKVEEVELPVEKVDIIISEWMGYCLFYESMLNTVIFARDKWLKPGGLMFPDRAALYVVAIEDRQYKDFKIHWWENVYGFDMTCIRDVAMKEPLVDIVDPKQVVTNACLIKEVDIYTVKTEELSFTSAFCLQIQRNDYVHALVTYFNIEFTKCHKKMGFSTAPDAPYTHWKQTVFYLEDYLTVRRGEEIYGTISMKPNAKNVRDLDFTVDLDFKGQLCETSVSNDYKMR
Procedure: as §1, §2, §3

[5] = target: T1, PRMT1; assay: SAHH-coupled fluorescence assay, inhibition of PRMT1
How it was run: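 PRMT1 (0.1 μM) was run with 10 μM AdoMet, 5 μM SAHH and 10 μM ThioGlo4 in 2.5 mM HEPES pH 7.0, 25 mM NaCl, 25 μM EDTA, 50 μM TCEP and 0.01% Triton X-100. Fluorescence (ex 400/em 465 nm) was monitored for 15 min. Assays were done in duplicate.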

[6] = system: PRMT3; assay: selectivity of YD1113/YD1290 on PRMT panel, PRMT3
Procedure: as §1, §2, §3

[7] = system: PRMT7; assay: selectivity of YD1113 on PRMT panel, PRMT7
Procedure: as §1, §2

[8] = target: T3, PRMT6 (Homo sapiens, UniProt Q96LA8); assay: selectivity of YD1113/YD1290 on PRMT panel, PRMT6
T3 sequence (Q96LA8 whole entry, species assumed): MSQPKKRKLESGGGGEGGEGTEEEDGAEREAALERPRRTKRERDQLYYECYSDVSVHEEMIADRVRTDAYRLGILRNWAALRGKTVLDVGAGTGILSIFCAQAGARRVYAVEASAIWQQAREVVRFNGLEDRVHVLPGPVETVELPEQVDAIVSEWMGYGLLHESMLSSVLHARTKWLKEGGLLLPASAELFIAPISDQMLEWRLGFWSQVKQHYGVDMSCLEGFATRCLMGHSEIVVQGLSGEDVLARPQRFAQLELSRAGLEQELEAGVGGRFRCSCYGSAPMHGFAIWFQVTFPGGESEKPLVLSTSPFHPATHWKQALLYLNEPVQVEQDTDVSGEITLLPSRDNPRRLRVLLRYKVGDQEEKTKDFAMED
Procedure: as §1, §2, §3

[9] = target: T3, PRMT6; assay: radioactive assay (Reaction Biology Corp.), inhibition of PRMT6; settings: for PRMT6 inhibition: 10 μM
Procedure: (§4) Next, the inhibition activity of the library was investigated for five PRMT members from type I PRMTs.
(§5) The PRMT 4, 6 and 8 methylation assays were performed by Reaction Biology corp.

[10] = target: T4, PRMT4 (Homo sapiens, UniProt Q86X55); assay: radioactive assay (Reaction Biology Corp.), inhibition of PRMT4
T4 sequence (Q86X55 1-608): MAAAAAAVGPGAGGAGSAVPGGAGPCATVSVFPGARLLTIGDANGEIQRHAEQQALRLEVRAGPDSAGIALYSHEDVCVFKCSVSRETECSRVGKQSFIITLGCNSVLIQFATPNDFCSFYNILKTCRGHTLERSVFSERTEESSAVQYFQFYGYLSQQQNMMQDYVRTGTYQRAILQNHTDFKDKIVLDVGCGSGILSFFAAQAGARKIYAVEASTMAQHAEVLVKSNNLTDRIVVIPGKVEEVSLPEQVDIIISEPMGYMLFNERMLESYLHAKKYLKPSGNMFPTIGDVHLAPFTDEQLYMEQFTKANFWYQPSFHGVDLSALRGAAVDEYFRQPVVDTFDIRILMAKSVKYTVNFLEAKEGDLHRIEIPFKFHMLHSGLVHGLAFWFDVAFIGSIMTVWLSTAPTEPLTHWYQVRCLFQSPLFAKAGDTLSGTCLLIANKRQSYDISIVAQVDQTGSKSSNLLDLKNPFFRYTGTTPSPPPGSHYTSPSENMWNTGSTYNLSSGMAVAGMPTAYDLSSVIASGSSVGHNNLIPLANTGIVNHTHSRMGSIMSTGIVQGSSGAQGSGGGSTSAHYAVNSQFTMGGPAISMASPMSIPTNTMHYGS
Procedure: as §4, §5

[11] = target: PRMT3 (Homo sapiens, UniProt O60678); assay: SAHH-coupled fluorescence assay, inhibition of PRMT3; set-up: PRMT3 (residues 211-531) was cloned into the pET28a-MHL expression vector; tag of the pET28a-MHL vector (not described); made in house; host or cells: Escherichia coli BL21(DE3)
Sequence of PRMT3 (Homo sapiens, UniProt O60678) (O60678 211-531): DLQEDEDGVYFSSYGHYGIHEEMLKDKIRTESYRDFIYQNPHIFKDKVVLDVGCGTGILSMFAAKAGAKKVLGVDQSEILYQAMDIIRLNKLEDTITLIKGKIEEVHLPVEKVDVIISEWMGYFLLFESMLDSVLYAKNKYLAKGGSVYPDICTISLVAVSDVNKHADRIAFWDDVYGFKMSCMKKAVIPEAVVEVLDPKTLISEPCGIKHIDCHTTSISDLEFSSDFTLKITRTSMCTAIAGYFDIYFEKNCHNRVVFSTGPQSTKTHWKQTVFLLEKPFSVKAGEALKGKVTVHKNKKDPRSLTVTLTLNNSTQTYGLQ
How it was run: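 Coupled SAHH/ThioGlo4 fluorescence read-out (ex 380 nm, em 505 nm) of PRMT3 (0.25 μM) methylation with 30 μM AdoMet and 5 μM SAHH. Buffer was 20 mM Tris pH 7.5 with 0.01% Triton X-100. Run in duplicate.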

[12] = system: PRMT3; assay: as above
Procedure: A fluorescence-based SAHH-coupled assay was applied to study the inhibition activity of all synthesized compounds on PRMT 1 and 3.
(§6) The PRMT3 methylation assay was performed under the following conditions in a final well volume of 100 μL: 20 mM Tris (pH=7.5), 0.01% Triton X-100, 5 μM SAHH, 0.25 μM PRMT3, 30 μM AdoMet, and 15 μM ThioGlo4. […] Fluorescence was monitored on a BMG CLARIOstar microplate reader with excitation 380 nm and emission 505 nm. Data were processed by using GraphPad Prism software 8.0. All experiments were performed in duplicate.
as §4
as §6, with “8.0.” for “8.0. All experiments were performed in duplicate.”

[13] = target: T2, PRMT8; assay: radioactive assay (Reaction Biology Corp.), inhibition of PRMT8
Procedure: as §4, §5

[14] = system: PRMT4; assay: radioactive assay (Reaction Biology Corp.), inhibition of PRMT4
Procedure: as §4, §5

T1 sequence (Q99873 whole entry, species assumed): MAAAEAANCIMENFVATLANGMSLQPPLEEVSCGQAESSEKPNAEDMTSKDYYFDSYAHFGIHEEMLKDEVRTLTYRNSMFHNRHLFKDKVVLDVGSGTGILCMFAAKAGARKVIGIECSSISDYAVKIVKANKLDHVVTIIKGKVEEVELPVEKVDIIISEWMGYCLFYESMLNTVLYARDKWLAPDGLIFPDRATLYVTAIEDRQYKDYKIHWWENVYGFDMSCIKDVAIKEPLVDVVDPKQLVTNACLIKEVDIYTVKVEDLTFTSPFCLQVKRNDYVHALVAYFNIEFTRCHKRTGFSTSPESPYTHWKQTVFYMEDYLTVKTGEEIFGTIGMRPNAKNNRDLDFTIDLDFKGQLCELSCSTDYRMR

Compound	inhibition at 10 µM [9]	inhibition at 10 µM [10]	inhibition at 10 µM [11]	inhibition at 10 µM [5]	inhibition at 10 µM [13]	IC50 [14]	IC50 ([12]; read-out: IC50 [µM] | PRMT3)	other results
N=C(NCCCSC[C@H]1O[C@@H](n2cnc3c(NCC#Cc4ccc(O)cc4)ncnc32)C(O)[C@H]1O)Nc1cccc(Br)c1 (stereo in doubt) [YD1-250]								IC50 [1]: 7.6 nM; IC50 [2]: 203 nM; IC50 [3]: 136 nM; IC50 [4]: 38 nM; PRMT1 inhibition [5]: PRMT1 inhibitors; IC50 [6]: 1640 nM; IC50 [7]: 2640 nM; IC50 [8]: 44 nM
N=C(NCCCSC[C@H]1O[C@@H](n2cnc3c(NCc4cn(Cc5ccccc5)nn4)ncnc32)C(O)[C@H]1O)Nc1cccc(Br)c1 (stereo in doubt) [YD1-254]								IC50 [1]: 14 nM; IC50 [2]: 1680 nM; IC50 [3]: 1790 nM; IC50 [4]: 40 nM; PRMT1 inhibition [5]: PRMT1 inhibitors; IC50 [6]: 3620 nM; IC50 [7]: > 30000 nM; IC50 [8]: 25 nM
N=C(NCCCSC[C@H]1O[C@@H](n2cnc3c(N)ncnc32)[C@H](O)[C@@H]1O)Nc1cccc(-c2cncnc2)c1 [Compound 6o]	96%	100%	5%	102%	95%			IC50 ([12]; read-out: IC50[μM] | PRMT3): 25 ± 5 µM; IC50 ([5]; read-out: IC50[μM] | PRMT1): 0.45 ± 0.11 µM
Nc1ncnc2c1ncn2[C@@H]1O[C@H](CSCCNC(=O)NCc2ccc(F)cc2)[C@@H](O)[C@H]1O [Compound 7d, 1-(2-((((2S,3S,4R,5R)-5-(6-amino-9H-purin-9-yl)-3,4-dihydroxytetrahydrofuran-2-yl)methyl)thio)ethyl)-3-(4-fluorobenzyl)urea]	25%	95%	62%	6%	8%	270 ± 60 nM	5.9 ± 1.4 µM	PRMT6 inhibition [9]: inactive to PRMT6; fold reduction of PRMT3 inhibition vs YD1113 [11]: over 10 fold
Nc1ncnc2c1ncn2[C@@H]1O[C@H](CSCCNC(=O)Nc2ccccc2)[C@@H](O)[C@H]1O [Compound 7f, 1-(2-((((2S,3S,4R,5R)-5-(6-amino-9H-purin-9-yl)-3,4-dihydroxytetrahydrofuran-2-yl)methyl)thio)ethyl)-3-phenylurea]	28%	84%	86%	9%	12%		1.9 ± 0.12 µM	PRMT6 inhibition [9]: inactive to PRMT6; fold reduction of PRMT3 inhibition vs YD1113 [11]: 4 fold
Nc1ncnc2c1ncn2[C@@H]1O[C@H](CSCCNC(=O)NCc2ccccc2Br)[C@@H](O)[C@H]1O [Compound 7h]	-11%	96%	25%	12%	-13%	21 ± 2.8 nM		
Nc1ncnc2c1ncn2[C@@H]1O[C@H](CSCCNC(=O)Nc2ccc(F)cc2)[C@@H](O)[C@H]1O [Compound 7j, 1-(2-((((2S,3S,4R,5R)-5-(6-amino-9H-purin-9-yl)-3,4-dihydroxytetrahydrofuran-2-yl)methyl)thio)ethyl)-3-(4-fluorophenyl)urea]	17%	88%	78%	17%	1%		2 ± 0.23 µM	PRMT6 inhibition [9]: inactive to PRMT6; fold reduction of PRMT3 inhibition vs YD1113 [11]: 4 fold
Nc1ncnc2c1ncn2[C@@H]1O[C@H](CSCCNC(=O)Nc2ccc(Cl)cc2)[C@@H](O)[C@H]1O [Compound 7k, 1-(2-((((2S,3S,4R,5R)-5-(6-amino-9H-purin-9-yl)-3,4-dihydroxytetrahydrofuran-2-yl)methyl)thio)ethyl)-3-(4-chlorophenyl)urea]	2%	67%	30%	7%	-1%		22 ± 2.9 µM	fold reduction of PRMT3 inhibition vs 1i ([11]; vs 1i): 10 fold
Nc1ncnc2c1ncn2[C@@H]1O[C@H](CSCCNC(=O)Nc2cccc3ccccc23)[C@@H](O)[C@H]1O [Compound 7l, 1-(2-((((2S,3S,4R,5R)-5-(6-amino-9H-purin-9-yl)-3,4-dihydroxytetrahydrofuran-2-yl)methyl)thio)ethyl)-3-(naphthalen-1-yl)urea]	2%	88%	1%	13%	5%	470 ± 120 nM	81 ± 17 µM	fold reduction of PRMT3 inhibition vs 1h ([11]; vs phenyl (1h)): over 40 fold
Nc1ncnc2c1ncn2[C@@H]1O[C@H](CSCCCNC(=O)NCc2ccccc2)[C@@H](O)[C@H]1O [Compound 7p, 1-(3-((((2S,3S,4R,5R)-5-(6-amino-9H-purin-9-yl)-3,4-dihydroxytetrahydrofuran-2-yl)methyl)thio)propyl)-3-benzylurea]	67%	76%	13%	7%	12%	3600 ± 420 nM	70 ± 11 µM	inhibition at 70 µM ([11]; 70 μM): 50%
Nc1ncnc2c1ncn2[C@@H]1O[C@H](CSCCNCc2cccc(-c3ccoc3)c2)[C@@H](O)[C@H]1O [Compound 10d]	46%	100%	1%	14%	44%	1200 ± 180 nM		
Nc1ncnc2c1ncn2[C@@H]1O[C@H](CSCCNCc2cccc(-c3cncnc3)c2)[C@@H](O)[C@H]1O [Compound 10g]	31%	98%	13%	5%	36%	9300 ± 1100 nM		
Nc1ncnc2c1ncn2[C@@H]1O[C@H](CSCCCNCc2cccc(-c3cncnc3)c2)[C@@H](O)[C@H]1O [Compound 10s]	65%	97%	24%	28%	39%	49000 ± 5700 nM		
N=C(NCCCSC[C@H]1O[C@@H](n2cnc3c(NCC#Cc4ccccc4)ncnc32)[C@H](O)[C@@H]1O)Nc1cccc(Br)c1 [YD1-248]								IC50 [1]: 3.35 nM; IC50 [2]: 2760 nM; IC50 [3]: 1380 nM; IC50 [4]: 24 nM; PRMT1 inhibition [5]: PRMT1 inhibitors; IC50 [6]: 2370 nM; IC50 [7]: 5570 nM; IC50 [8]: 25 nM
